Test results from patent US12083089B2, “Compositions and methods for stimulating ventilatory and/or respiratory drive” (CASE WESTERN RESERVE UNIVERSITY, priority 2015, dated 2024).

Key:
[1] = tested on: freely moving rats; assay: Tail-flick latency (TFL) test; type: in vivo, rat; settings: for Tail-Flick latency: vehicle-pretreated rats, morphine 10 mg/kg IV
[2] = tested on: adult male rats; assay: Hargreaves Hind-paw Latency Test, morphine 1 mg/kg; type: in vivo, rat; settings: given alone, morphine sulfate 1 mg/kg IV
[3] = tested on: rats; assay: Sedation observation in morphine-treated rats; settings: morphine 10 mg/kg IV plus vehicle
[4] = tested on: freely moving rats; assay: Arterial blood-gas chemistry and A-a gradient in morphine-treated rats; type: in vivo, rat; settings: freely moving rats, morphine 10 mg/kg IV, then drug 500 μmol/kg IV 15 min later

CN1CC[C@]23c4c5ccc(O)c4O[C@H]2[C@@H](O)C=C[C@H]3[C@H]1C5 [Morphine, morphine]
duration of the increase in TFL ([1]; morphine 10 mg/kg IV in vehicle-treated rats): at least 4 h
Tail-Flick latency ([1]; post-morphine - 30 min): 12 ± 0.0 s
Tail-Flick latency ([1]; post-morphine - 60 min): 12 ± 0.0 s
Tail-Flick latency ([1]; post-morphine - 90 min): 11.7 ± 0.2 s
Tail-Flick latency ([1]; post-morphine - 120 min): 11.1 ± 0.2 s
Tail-Flick latency ([1]; post-morphine - 180 min): 8.3 ± 0.3 s
Tail-Flick latency ([1]; post-morphine - 210 min): 5.6 ± 0.3 s
Tail-Flick latency ([1]; post-morphine - 240 min): 4.3 ± 0.3 s
Tail-Flick latency ([1]; post-morphine - 360 min): 3.3 ± 0.3 s
Hargreaves hind-paw withdrawal latency ([2]; D-cystine diME 500 μmol/kg IV, FIG. 26 study): 16.3 ± 1.8 s
Hargreaves hind-paw withdrawal latency ([2]; L-cystine diME 500 μmol/kg IV, FIG. 24 study): 19.5 ± 0.4 s
time for which full mobility was not evident [3]: at least 2 h
changes in ABG chemistry (pH, pCO2, pO2 and sO2) ([4]; FIG. 18): substantial falls in pH, pO2 and sO2 accompanied by substantial increases in pCO2
changes in A-a gradient ([4]; FIG. 19): substantial and equivalent increases
